Laboratory results reported in US20090306373A1, “4,7-DIHYDROTHIENO[2,3-B]PYRIDINE COMPOUNDS AND PHARMACEUTICAL COMPOSITIONS” (priority 2005, published 2009).

These molecules were tested on alpha-MyHC (assay: alpha-MyHC cytoblot in neonatal rat ventricular myocytes (NRVM)). Details: Rattus norvegicus, Ventricular myocyte, Table 1, 72 hours, concentration giving 50% of maximum response.
Assay type: cell-based
Experimental: In vitro activity of each compound is measured using the alpha-MyHC cytoblot process. Briefly, neonatal rat ventricular myocytes (NRVM) at 120,000 cells/ml in HyQ DME/High modified culture media supplemented with 10% charcoal/dextran treated FBS, 0.1% Nutridoma-SP, 1:100 MEM non-essential amino acids, 1:50 MEM amino acids solution w/o L-Gln, 1 mM sodium pyruvate and 1:100 P/S/G, are plated on gelatin coated sterile 384-well plates (Costar 3712) at 6,000 cells per well. Cells are incubated overnight at 37° C. in 5% CO2 100% humidity. Following overnight growth the media is changed to HyQ DME/High modified culture media supplemented with 0.3% Nutridoma-SP, 1:100 MEM non-essential amino acids, 1:50 MEM amino acids solution w/o L-Gln, 1 mM sodium pyruvate and 1:100 P/S/G. Cells are then dosed with serial dilutions of each compound in DMSO. Each concentration in the dose range is dosed in quadruplicate. Dosing is done in such a way so that the final DMSO concentration was 0.44%. Compound dilutions are 3-fold with the final top concentration of 10 uM. […] Following dosing, the cells are incubated for 72 hours at 37° C. in 5% CO2 100% humidity and then processed with the cytoblot method. Briefly, cell media is aspirated and cell monolayers washed with PBS and fixed with 100% methanol for 30 minutes. Fixed cells are then blocked with PBS, 0.05% Tween-20, 1% BSA, for 1 hour. Following blocking, cells are incubated with primary alpha-MyHC-specific antibody (1:30 dilution of BA-G5 hybridoma conditioned media, ATCC HB276) for 1 hour. Following incubation with the primary antibody, cells are washed with PBS, 0.05% Tween-20, 1% BSA and incubated with secondary antibody (1:1000 dilution, goat-anti-mouse HRP, Southern Biotech, 1031-05) for 1 hour. Following incubation with the secondary antibody, wells are washed and incubated in SuperSignal, West Dura HRP-luminescence substrate for 30 seconds under shaking at room temperature. Luminescence is measured using a Packard Fusion plate reader. […] RLU values are converted into percent fraction of low control and dose responses are fitted to a sigmoidal 4-parameter equation (XLFit, IDBS) where the EC50 and Max Plateau values were extracted. […] Max Plateau is the […] maximum value determined by the dose response fit.

Compound	EC50 [nM]
CCC(=O)C1=C(CC)Nc2sc(C(=O)c3ccc(Cl)c(Cl)c3)c(N)c2C1c1ccncc1 (stereo not shown) [Compound 104, 1-[3-amino-2-(3,4 dichloro-benzoyl)-6-ethyl-4 pyridin-4-yl-4,7 dihydro-thieno[2,3-b]pyridin-5-yl]-propan-1-one]	24.8
CCC(=O)C1=C(CC)Nc2sc(C(=O)c3ccc(F)c(F)c3)c(N)c2C1c1ccccc1F (stereo not shown) [Compound 108, 1-[3-amino-2-(3,4 difluoro-benzoyl)-6-ethyl-4-(2 fluoro-phenyl)-4,7 dihydro-thieno[2,3-b]pyridine-5-yl]propan-1-one]	4.02

Same assay, conditions: Rattus norvegicus, Ventricular myocyte, Table 4, 72 hours, concentration giving 50% of maximum response

Compound	EC50 [nM]
CC(=O)C1=C(C)Nc2sc(C(=O)c3ccc(Cl)c(Cl)c3)c(N)c2C1(C)c1cccc(F)c1 (stereo not shown) [Compound 207, 1-[3-amino-2-(3,4 dichloro-benzoyl)-4-(3 fluoro-phenyl)-4,6-dimethyl-4,7 dihydro-thieno[2,3-b]pyridin-5-yl]-ethanone]	3340
CCOC(=O)C1=C(C)Nc2sc(C(=O)c3ccccc3)c(N)c2C1(C)c1ccccc1 (stereo not shown) [Compound 206]	936

Same assay, conditions: Rattus norvegicus, Ventricular myocyte, Table 5, 72 hours, concentration giving 50% of maximum response

Compound	EC50 [nM]
CC(=O)C1=C(C)N(C)c2sc(C(=O)c3ccccc3)c(N)c2C1c1ccccc1 (stereo not shown) [Compound 208, 1-(3-amino-2-benzoyl-6,7 dimethyl-4-phenyl-4,7 dihydro-thieno[2,3-b]pyridin-5-yl)-ethanone]	3430

Same assay, conditions: Table 1, 72 hours, fitted maximum, percent fraction of low control (vehicle), in %

Compound	Max Plateau
CC(=O)C1=C(C)Nc2sc(C(=O)c3ccccc3Cl)c(N)c2C1c1ccccc1 (stereo not shown) [Compound 57]	246.00 ± 16.33
CC(=O)C1=C(C)Nc2sc(C(=O)c3cccnc3)c(N)c2C1c1ccccc1 (stereo not shown) [Compound 5]	286.43 ± 42.04
CCC(=O)C1=C(CC)Nc2sc(C(=O)c3ccc(F)c(F)c3)c(N)c2C1c1ccnc(F)c1 (stereo not shown) [Compound 102]	269.88 ± 36.90
CCC(=O)C1=C(CC)Nc2sc(C(=O)c3cc(C(F)(F)F)cc(C(F)(F)F)c3)c(N)c2C1c1ccccc1 (stereo not shown) [Compound 73]	205.27 ± 38.78
CCC(=O)C1=C(CC)Nc2sc(C(=O)c3ccccc3F)c(N)c2C1c1ccccc1 (stereo not shown) [Compound 67]	256.12 ± 53.66
CC(=O)C1=C(C)Nc2sc(C(=O)c3cccc(Br)c3)c(N)c2C1c1ccccc1 (stereo not shown) [Compound 6]	289.34 ± 70.69
CCC(=O)C1=C(CC)Nc2sc(C(=O)c3ccc(C#N)cc3)c(N)c2C1c1ccccc1 (stereo not shown) [Compound 112]	266.67 ± 57.74
CCCC(=O)C1=C(CCC)Nc2sc(C(=O)c3cc(Cl)ccc3Cl)c(N)c2C1c1ccccc1 (stereo not shown) [Compound 94]	153.83 ± 13.14
CCC(=O)C1=C(CC)Nc2sc(C(=O)c3ccc(Cl)c(Cl)c3)c(N)c2C1c1cccnc1 (stereo not shown) [Compound 75]	226.71 ± 40.80
CCC(=O)C1=C(CC)Nc2sc(C(=O)c3cccc(C(=O)O)c3)c(N)c2C1c1ccccc1 (stereo not shown) [Compound 77]	220.00 ± 10.00
CCC(=O)C1=C(CC)Nc2sc(C(=O)c3ccc(Cl)c(Cl)c3)c(N)c2C1c1ccccc1Cl (stereo not shown) [Compound 38]	288.93 ± 52.81
CCC(=O)C1=C(CC)Nc2sc(C(=O)c3ccc(F)c(F)c3)c(N)c2C1c1ccccc1 (stereo not shown) [Compound 72]	223.99 ± 24.51
CCC(=O)C1=C(CC)Nc2sc(C(=O)c3cccc([N+](=O)[O-])c3)c(N)c2C1c1ccccc1F (stereo not shown) [Compound 97]	247.24 ± 38.88
CCC(=O)C1=C(CC)Nc2sc(C(=O)c3ccc(Cl)cc3)c(N)c2C1c1ccccc1 (stereo not shown) [Compound 80]	226.13 ± 5.25
CC(=O)C1=C(C)Nc2sc(C(=O)c3ccc(Cl)c(Cl)c3)c(N)c2C1c1ccc(C(F)(F)F)cc1 (stereo not shown) [Compound 48]	190.81 ± 37.09
COc1ccccc1C1C(C(C)=O)=C(C)Nc2sc(C(=O)c3ccccc3)c(N)c21 (stereo not shown) [Compound 18]	215.25 ± 44.08

Compound	Max Plateau
CCC(=O)C1=C(CC)Nc2sc(C(=O)c3ccc(Cl)c(Cl)c3)c(N)c2C1c1ccc(O)cc1Cl (stereo not shown) [Compound 83]	274.88 ± 44.56
CC(=O)C1=C(C)Nc2sc(C(=O)c3ccccc3)c(N)c2C1c1ccc(F)cc1 (stereo not shown) [Compound 37]	227.92 ± 12.46
CC(=O)C1=C(C)Nc2sc(C(=O)c3ccc(Cl)c(Cl)c3)c(N)c2C1c1ccc(C)cc1 (stereo not shown) [Compound 45]	108.63 ± 9.14
CCC(=O)C1=C(CC)Nc2sc(C(=O)c3ccc(F)cc3)c(N)c2C1c1ccccc1 (stereo not shown) [Compound 79]	241.90 ± 15.79
CC(=O)C1=C(C)Nc2sc(C(=O)c3cccc([N+](=O)[O-])c3)c(N)c2C1c1ccc(C(=O)O)cc1 (stereo not shown) [Compound 9]	100.00 ± 0.00
CCCC(=O)C1=C(CCC)Nc2sc(C(=O)c3ccc(Cl)c(Cl)c3)c(N)c2C1c1ccccc1F (stereo not shown) [Compound 87]	187.66 ± 12.24
CCC(=O)C1=C(CC)Nc2sc(C(=O)c3cc(Cl)ccc3Cl)c(N)c2C1c1ccccc1 (stereo not shown) [Compound 64]	281.39 ± 54.54
CCCC(=O)C1=C(CCC)Nc2sc(C(=O)c3ccc(Cl)c(Cl)c3)c(N)c2C1c1ccccc1 (stereo not shown) [Compound 86]	131.26 ± 2.34
CCC(=O)C1=C(CC)Nc2sc(C(=O)c3ccc(Cl)c(Cl)c3)c(N)c2C1c1ccccc1 (stereo not shown) [Compound 36]	256.56 ± 24.93
CCC(=O)C1=C(CC)Nc2sc(C(=O)c3ccccc3)c(N)c2C1c1c(F)cccc1F (stereo not shown) [Compound 69]	221.36 ± 15.94
CC(=O)C1=C(C)Nc2sc(C(=O)c3ccc(Cl)c(Cl)c3)c(N)c2C1c1ccc(Cl)cc1Cl (stereo not shown) [Compound 52]	122.73 ± 20.55
CCC(=O)C1=C(CC)Nc2sc(C(=O)c3ccc(Cl)c(Cl)c3)c(N)c2C1c1ccnc(Cl)c1 (stereo not shown) [Compound 99]	264.37 ± 33.84
CCC(=O)C1=C(CC)Nc2sc(C(=O)c3c(Cl)cccc3Cl)c(N)c2C1c1ccccc1F (stereo not shown) [Compound 107]	273.85 ± 29.06
CC(=O)C1=C(C)Nc2sc(C(=O)c3ccccc3)c(N)c2C1c1ccccc1F (stereo not shown) [Compound 24]	260.35 ± 43.53
CC(=O)C1=C(C)Nc2sc(C(=O)c3ccccc3)c(N)c2C1c1ccc(Cl)cc1 (stereo not shown) [Compound 21]	193.20 ± 49.26
CC(=O)C1=C(C)Nc2sc(C(=O)c3ccc(Cl)c(Cl)c3)c(N)c2C1c1cc(Cl)cc(Cl)c1 (stereo not shown) [Compound 33]	143.15 ± 21.22

Same assay, conditions: Table 2, 72 hours, fitted maximum, percent fraction of low control (vehicle), in %

Compound	Max Plateau
CCC1=C(C(=O)OC)C(c2cc(F)cc(F)c2)c2c(sc(C(=O)c3ccc(F)c(F)c3)c2N)N1 (stereo not shown) [Compound 170]	262.16
CCOC(=O)C1=C(CC)Nc2sc(C(=O)c3ccc(Cl)c(Cl)c3)c(N)c2C1c1ccncc1F (stereo not shown) [Compound 168]	239.64
CCC1=C(C(=O)OC)C(c2ccccc2)c2c(sc(C(=O)c3cccc(C#N)c3)c2N)N1 (stereo not shown) [Compound 143]	290.53
COC(=O)C1=C(CCc2ccccc2)Nc2sc(C(=O)c3ccc(Cl)c(Cl)c3)c(N)c2C1c1ccccc1F (stereo not shown) [Compound 154]	125.87
CCOC(=O)C1=C(CC)Nc2sc(C(=O)c3ccc(Cl)c(Cl)c3)c(N)c2C1c1ccncc1Cl (stereo not shown) [Compound 169]	261.04
COC(=O)C1=C(C(C)C)Nc2sc(C(=O)c3ccc(Cl)c(Cl)c3)c(N)c2C1c1cccc([N+](=O)[O-])c1 (stereo not shown) [Compound 134]	98.33
CCC1=C(C(=O)OC(C)CC)C(c2ccccc2F)c2c(sc(C(=O)c3cccc(C#N)c3)c2N)N1 (single isomer, unassigned) [Compound 166]	219.07
COC(=O)C1=C(C2CC2)Nc2sc(C(=O)c3cccc(Cl)c3)c(N)c2C1c1ccnc(F)c1 (racemic) [Compound 176]	218.25
CCC1=C(C(=O)OC)C(c2ccccc2F)c2c(sc(C(=O)c3cccc(Cl)c3)c2N)N1 (stereo not shown) [Compound 167]	255.95
CCC1=C(C(=O)OC)C(c2ccccc2)c2c(sc(C(=O)c3cccc([N+](=O)[O-])c3)c2N)N1 (stereo not shown) [Compound 139]	281.08
COC(=O)C1=C(C2CC2)Nc2sc(C(=O)c3ccc(Cl)c(Cl)c3)c(N)c2C1c1ccccc1F (stereo not shown) [Compound 144]	187.17
CCC1=C(C(=O)OC)C(c2ccc(F)cc2F)c2c(sc(C(=O)c3ccc(Cl)c(Cl)c3)c2N)N1 (stereo not shown) [Compound 153]	234.66
CC1=C(C(=O)OC(C)C)C(c2ccccc2)c2c(sc(C(=O)c3ccc(Cl)c(Cl)c3)c2N)N1 (stereo not shown) [Compound 135]	186.32

Same assay, conditions: Table 3, 72 hours, fitted maximum, percent fraction of low control (vehicle), in %

Compound	Max Plateau
CCNC(=O)C1=C(C)Nc2sc(C(=O)c3ccc(Cl)c(Cl)c3)c(N)c2C1c1ccccc1 (racemic) [Compound 195]	126.67 ± 23.09

Same assay, conditions: Table 5, 72 hours, fitted maximum, percent fraction of low control (vehicle), in %

Compound	Max Plateau
COCCOCN1C(C)=C(C(C)=O)C(c2ccccc2)c2c1sc(C(=O)c1ccccc1)c2N (racemic) [Compound 209]	192.74
